Laboratory results from ChEMBL document CHEMBL3112480, “γ-Alkylidene-γ-lactones and isobutylpyrrol-2(5H)-ones analogues to rubrolides as inhibitors of biofilm formation by gram-positive and gram-negative bacteria” (Bioorg Med Chem Lett, 2014).
Values after ≈ are worked out from the molar mass of the structure shown.

How the values were obtained:
[1] = tested on: Streptococcus mutans; test: Antibacterial activity against Streptococcus mutans ATCC 25175 assessed as effect on planktonic growth at 21.9 ug/ml after 20 hrs relative to control; assay type: functional
[2] = tested on: Streptococcus mutans; test: Antibacterial activity against Streptococcus mutans ATCC 25175 assessed as effect on planktonic growth at 43.8 ug/ml after 20 hrs relative to control; assay type: functional
[3] = tested on: Streptococcus mutans; test: Antibacterial activity against Streptococcus mutans ATCC 25175 assessed as effect on planktonic growth at 87.5 ug/ml after 20 hrs relative to control; assay type: functional
[4] = tested on: Staphylococcus aureus; test: Antibacterial activity against Staphylococcus aureus ATCC 25923 assessed as effect on planktonic growth at 0.17 ug/ml after 20 hrs relative to control; assay type: functional
[5] = tested on: Staphylococcus aureus; test: Antibacterial activity against Staphylococcus aureus ATCC 25923 assessed as effect on planktonic growth at 0.34 ug/ml after 20 hrs relative to control; assay type: functional
[6] = tested on: Staphylococcus aureus; test: Antibacterial activity against Staphylococcus aureus ATCC 25923 assessed as effect on planktonic growth at 0.68 ug/ml after 20 hrs relative to control; assay type: functional
[7] = tested on: Staphylococcus aureus; test: Antibacterial activity against Staphylococcus aureus ATCC 25923 assessed as effect on planktonic growth at 1.37 ug/ml after 20 hrs relative to control; assay type: functional
[8] = tested on: Staphylococcus aureus; test: Antibacterial activity against Staphylococcus aureus ATCC 25923 assessed as effect on planktonic growth at 5.5 ug/ml after 20 hrs relative to control; assay type: functional
[9] = tested on: Staphylococcus aureus; test: Antibacterial activity against Staphylococcus aureus ATCC 25923 assessed as effect on planktonic growth at 2.73 ug/ml after 20 hrs relative to control; assay type: functional
[10] = tested on: Staphylococcus aureus; test: Antibacterial activity against Staphylococcus aureus ATCC 25923 assessed as effect on planktonic growth at 10.9 ug/ml after 20 hrs relative to control; assay type: functional
[11] = tested on: Staphylococcus aureus; test: Antibacterial activity against Staphylococcus aureus ATCC 25923 assessed as effect on planktonic growth at 21.9 ug/ml after 20 hrs relative to control; assay type: functional
[12] = tested on: Staphylococcus aureus; test: Antibacterial activity against Staphylococcus aureus ATCC 25923 assessed as effect on planktonic growth at 43.8 ug/ml after 20 hrs relative to control; assay type: functional
[13] = tested on: Staphylococcus aureus; test: Antibacterial activity against Staphylococcus aureus ATCC 25923 assessed as effect on planktonic growth at 87.5 ug/ml after 20 hrs relative to control; assay type: functional
[14] = tested on: Pseudomonas aeruginosa; test: Antibacterial activity against Pseudomonas aeruginosa ATCC 27853 assessed as effect on planktonic growth at 0.17 ug/ml after 20 hrs relative to control; assay type: functional
[15] = tested on: Pseudomonas aeruginosa; test: Antibacterial activity against Pseudomonas aeruginosa ATCC 27853 assessed as effect on planktonic growth at 0.34 ug/ml after 20 hrs relative to control; assay type: functional
[16] = tested on: Pseudomonas aeruginosa; test: Antibacterial activity against Pseudomonas aeruginosa ATCC 27853 assessed as effect on planktonic growth at 0.68 ug/ml after 20 hrs relative to control; assay type: functional
[17] = tested on: Pseudomonas aeruginosa; test: Antibacterial activity against Pseudomonas aeruginosa ATCC 27853 assessed as effect on planktonic growth at 1.37 ug/ml after 20 hrs relative to control; assay type: functional
[18] = tested on: Pseudomonas aeruginosa; test: Antibacterial activity against Pseudomonas aeruginosa ATCC 27853 assessed as effect on planktonic growth at 2.73 ug/ml after 20 hrs relative to control; assay type: functional
[19] = tested on: Pseudomonas aeruginosa; test: Antibacterial activity against Pseudomonas aeruginosa ATCC 27853 assessed as effect on planktonic growth at 5.5 ug/ml after 20 hrs relative to control; assay type: functional
[20] = tested on: Pseudomonas aeruginosa; test: Antibacterial activity against Pseudomonas aeruginosa ATCC 27853 assessed as effect on planktonic growth at 10.9 ug/ml after 20 hrs relative to control; assay type: functional
[21] = tested on: Pseudomonas aeruginosa; test: Antibacterial activity against Pseudomonas aeruginosa ATCC 27853 assessed as effect on planktonic growth at 21.9 ug/ml after 20 hrs relative to control; assay type: functional
[22] = tested on: Pseudomonas aeruginosa; test: Antibacterial activity against Pseudomonas aeruginosa ATCC 27853 assessed as effect on planktonic growth at 43.8 ug/ml after 20 hrs relative to control; assay type: functional
[23] = tested on: Pseudomonas aeruginosa; test: Antibacterial activity against Pseudomonas aeruginosa ATCC 27853 assessed as effect on planktonic growth at 87.5 ug/ml after 20 hrs relative to control; assay type: functional
[24] = tested on: Staphylococcus epidermidis; test: Antibacterial activity against Staphylococcus epidermidis ATCC 35547 assessed as effect on planktonic growth at 0.17 ug/ml after 20 hrs relative to control; assay type: functional
[25] = tested on: Staphylococcus epidermidis; test: Antibacterial activity against Staphylococcus epidermidis ATCC 35547 assessed as effect on planktonic growth at 0.34 ug/ml after 20 hrs relative to control; assay type: functional
[26] = tested on: Staphylococcus epidermidis; test: Antibacterial activity against Staphylococcus epidermidis ATCC 35547 assessed as effect on planktonic growth at 0.68 ug/ml after 20 hrs relative to control; assay type: functional
[27] = tested on: Staphylococcus epidermidis; test: Antibacterial activity against Staphylococcus epidermidis ATCC 35547 assessed as effect on planktonic growth at 1.37 ug/ml after 20 hrs relative to control; assay type: functional
[28] = tested on: Staphylococcus epidermidis; test: Antibacterial activity against Staphylococcus epidermidis ATCC 35547 assessed as effect on planktonic growth at 2.73 ug/ml after 20 hrs relative to control; assay type: functional
[29] = tested on: Staphylococcus epidermidis; test: Antibacterial activity against Staphylococcus epidermidis ATCC 35547 assessed as effect on planktonic growth at 5.5 ug/ml after 20 hrs relative to control; assay type: functional
[30] = tested on: Staphylococcus epidermidis; test: Antibacterial activity against Staphylococcus epidermidis ATCC 35547 assessed as effect on planktonic growth at 10.9 ug/ml after 20 hrs relative to control; assay type: functional
[31] = tested on: Staphylococcus epidermidis; test: Antibacterial activity against Staphylococcus epidermidis ATCC 35547 assessed as effect on planktonic growth at 21.9 ug/ml after 20 hrs relative to control; assay type: functional
[32] = tested on: Staphylococcus epidermidis; test: Antibacterial activity against Staphylococcus epidermidis ATCC 35547 assessed as effect on planktonic growth at 43.8 ug/ml after 20 hrs relative to control; assay type: functional
[33] = tested on: Staphylococcus epidermidis; test: Antibacterial activity against Staphylococcus epidermidis ATCC 35547 assessed as effect on planktonic growth at 87.5 ug/ml after 20 hrs relative to control; assay type: functional
[34] = tested on: Pseudomonas aeruginosa; test: Antibacterial activity against Pseudomonas aeruginosa ATCC 27853 assessed as inhibition of biofilm formation after 20 hrs by crystal-violet staining method; assay type: functional, organism-based
[35] = tested on: Staphylococcus epidermidis; test: Antibacterial activity against Staphylococcus epidermidis ATCC 35547 assessed as inhibition of biofilm formation after 20 hrs by crystal-violet staining method; assay type: functional, organism-based; settings: for IC50: ATCC 35547, 20 h
[36] = tested on: Streptococcus mutans; test: Antibacterial activity against Streptococcus mutans ATCC 25175 assessed as effect on planktonic growth at 0.17 ug/ml after 20 hrs relative to control; assay type: functional
[37] = tested on: Streptococcus mutans; test: Antibacterial activity against Streptococcus mutans ATCC 25175 assessed as effect on planktonic growth at 0.34 ug/ml after 20 hrs relative to control; assay type: functional
[38] = tested on: Streptococcus mutans; test: Antibacterial activity against Streptococcus mutans ATCC 25175 assessed as effect on planktonic growth at 0.68 ug/ml after 20 hrs relative to control; assay type: functional
[39] = tested on: Streptococcus mutans; test: Antibacterial activity against Streptococcus mutans ATCC 25175 assessed as effect on planktonic growth at 1.37 ug/ml after 20 hrs relative to control; assay type: functional
[40] = tested on: Streptococcus mutans; test: Antibacterial activity against Streptococcus mutans ATCC 25175 assessed as effect on planktonic growth at 2.73 ug/ml after 20 hrs relative to control; assay type: functional
[41] = tested on: Streptococcus mutans; test: Antibacterial activity against Streptococcus mutans ATCC 25175 assessed as effect on planktonic growth at 5.5 ug/ml after 20 hrs relative to control; assay type: functional
[42] = tested on: Streptococcus mutans; test: Antibacterial activity against Streptococcus mutans ATCC 25175 assessed as effect on planktonic growth at 10.9 ug/ml after 20 hrs relative to control; assay type: functional

Structure (SMILES): COc1cccc(/C=C2\OC(=O)C(Br)=C2c2cc(Cl)ccc2OC)c1
- Activity [1]: 14%
- Activity [2]: 22.7%
- Activity [3]: 49%
- Activity [4]: 10.3%
- Activity [5]: 30.5%
- Activity [6]: 47.2%
- Activity [7]: 52.1%
- Activity [8]: 34.4%
- Activity [9]: 39.5%
- Activity [10]: 43.1%
- Activity [11]: 47.2%
- Activity [12]: 80.5%
- Activity [13]: 134.6%
- Activity [14]: -1.2%
- Activity [15]: 0.5%
- Activity [16]: 0.7%
- Activity [17]: -7.3%
- Activity [18]: -16%
- Activity [19]: -19.4%
- Activity [20]: -14.8%
- Activity [21]: -11.6%
- Activity [22]: -8.7%
- Activity [23]: -9.5%
- Activity [24]: 3.7%
- Activity [25]: 0.1%
- Activity [26]: -1.5%
- Activity [27]: -4.7%
- Activity [28]: -2.4%
- Activity [29]: -4.6%
- Activity [30]: -5.5%
- Activity [31]: -1.3%
- Activity [32]: 5.6%
- Activity [33]: 10.6%
- inhibition [34]: Dose-dependent effect
- IC50 ([34]; ATCC 27853, 20 h): 1.7 µg/mL (≈ 4.03 µM)
- inhibition [35]: Dose-dependent effect
- IC50 [35]: > 87.5 µg/mL
- Activity [36]: 26.9%
- Activity [37]: 25.7%
- Activity [38]: 23.9%
- Activity [39]: 34.3%
- Activity [40]: 37.3%
- Activity [41]: 19.7%
- Activity [42]: 18.8%

Structure (SMILES): COc1ccc(Br)cc1C1=C(Br)C(=O)N(CC(C)C)C1(O)Cc1cccc(Cl)c1 (centres undefined)
- Activity [1]: 15.4%
- Activity [2]: 16.9%
- Activity [3]: 26.1%
- Activity [4]: -4.6%
- Activity [5]: 6.1%
- Activity [6]: 3.1%
- Activity [7]: -2%
- Activity [8]: 16.6%
- Activity [9]: 0.6%
- Activity [10]: 4.2%
- Activity [11]: 23.8%
- Activity [12]: 30.3%
- Activity [13]: 35.1%
- Activity [14]: -7.3%
- Activity [15]: -5.4%
- Activity [16]: -9%
- Activity [17]: -6.6%
- Activity [18]: 0.1%
- Activity [19]: -3.1%
- Activity [20]: 3.2%
- Activity [21]: 1.4%
- Activity [22]: 4.3%
- Activity [23]: 3.3%
- Activity [24]: 17.5%
- Activity [25]: 34.1%
- Activity [26]: 23.2%
- Activity [27]: 22.8%
- Activity [28]: 20.9%
- Activity [29]: 24.3%
- Activity [30]: 25.8%
- Activity [31]: 30.2%
- Activity [32]: 35.9%
- Activity [33]: 38.2%
- inhibition [34]: Dose-dependent effect
- inhibition [35]: Dose-dependent effect
- IC50 [35]: > 87.5 µg/mL
- Activity [36]: 1.1%
- Activity [37]: 5.5%
- Activity [38]: 10.3%
- Activity [39]: 12.1%
- Activity [40]: 7%
- Activity [41]: 9.6%
- Activity [42]: 6.6%

Structure (SMILES): COc1ccc(C)cc1C1=C(Br)C(=O)O/C1=C\c1ccccc1Cl
- Activity [1]: -3.3%
- Activity [2]: 7.4%
- Activity [3]: 18.9%
- Activity [4]: 6%
- Activity [5]: 8.3%
- Activity [6]: 10.9%
- Activity [7]: 16.9%
- Activity [8]: 8.3%
- Activity [9]: 16.9%
- Activity [10]: 10.9%
- Activity [11]: 7.3%
- Activity [12]: 25.3%
- Activity [13]: 37%
- Activity [14]: -3.8%
- Activity [15]: -8.6%
- Activity [16]: -7.8%
- Activity [17]: -7.5%
- Activity [18]: -4.1%
- Activity [19]: -5.3%
- Activity [20]: -10.2%
- Activity [21]: -6.8%
- Activity [22]: -2%
- Activity [23]: 11.1%
- Activity [24]: -1.6%
- Activity [25]: -0.1%
- Activity [26]: 0.9%
- Activity [27]: 8.5%
- Activity [28]: -0.7%
- Activity [29]: 3.7%
- Activity [30]: 13.5%
- Activity [31]: 15.8%
- Activity [32]: 36.5%
- Activity [33]: 70.5%
- inhibition [34]: Dose-dependent effect
- inhibition [35]: Dose-dependent effect
- Activity [36]: 1.5%
- Activity [37]: 6.4%
- Activity [38]: 5.6%
- Activity [39]: 1.5%
- Activity [40]: -4.1%
- Activity [41]: 0.8%
- Activity [42]: -13.6%
